Values quoted from earlier work in US20060165806A1, “Nanoparticulate candesartan formulations” (Elan Pharma International Limited, priority 2005, published 2006).

Legend:
AT1 receptor = target: T1, AT1 receptor (Homo sapiens, UniProt P30556); conditions: AT1 versus AT2 receptor
T1 sequence (P30556 1-359): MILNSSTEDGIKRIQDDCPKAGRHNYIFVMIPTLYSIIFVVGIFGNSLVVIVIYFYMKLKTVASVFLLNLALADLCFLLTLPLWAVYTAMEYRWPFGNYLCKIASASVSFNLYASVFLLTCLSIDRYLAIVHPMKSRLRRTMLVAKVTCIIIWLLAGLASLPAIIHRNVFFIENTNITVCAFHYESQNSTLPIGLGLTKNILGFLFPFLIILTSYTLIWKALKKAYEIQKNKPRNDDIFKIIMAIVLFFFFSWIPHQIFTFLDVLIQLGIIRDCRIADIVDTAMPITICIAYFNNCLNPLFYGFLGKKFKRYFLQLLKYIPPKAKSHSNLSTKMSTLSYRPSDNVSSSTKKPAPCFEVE

ACE (kininase II) = ACE (kininase II) (Homo sapiens, UniProt P12821)
[1] = system: other hormone receptors or ion channels known to be important in cardiovascular regulation; conditions: receptors and channels important in cardiovascular regulation

ACE (kininase II), sequence (P12821 30-1306, species assumed): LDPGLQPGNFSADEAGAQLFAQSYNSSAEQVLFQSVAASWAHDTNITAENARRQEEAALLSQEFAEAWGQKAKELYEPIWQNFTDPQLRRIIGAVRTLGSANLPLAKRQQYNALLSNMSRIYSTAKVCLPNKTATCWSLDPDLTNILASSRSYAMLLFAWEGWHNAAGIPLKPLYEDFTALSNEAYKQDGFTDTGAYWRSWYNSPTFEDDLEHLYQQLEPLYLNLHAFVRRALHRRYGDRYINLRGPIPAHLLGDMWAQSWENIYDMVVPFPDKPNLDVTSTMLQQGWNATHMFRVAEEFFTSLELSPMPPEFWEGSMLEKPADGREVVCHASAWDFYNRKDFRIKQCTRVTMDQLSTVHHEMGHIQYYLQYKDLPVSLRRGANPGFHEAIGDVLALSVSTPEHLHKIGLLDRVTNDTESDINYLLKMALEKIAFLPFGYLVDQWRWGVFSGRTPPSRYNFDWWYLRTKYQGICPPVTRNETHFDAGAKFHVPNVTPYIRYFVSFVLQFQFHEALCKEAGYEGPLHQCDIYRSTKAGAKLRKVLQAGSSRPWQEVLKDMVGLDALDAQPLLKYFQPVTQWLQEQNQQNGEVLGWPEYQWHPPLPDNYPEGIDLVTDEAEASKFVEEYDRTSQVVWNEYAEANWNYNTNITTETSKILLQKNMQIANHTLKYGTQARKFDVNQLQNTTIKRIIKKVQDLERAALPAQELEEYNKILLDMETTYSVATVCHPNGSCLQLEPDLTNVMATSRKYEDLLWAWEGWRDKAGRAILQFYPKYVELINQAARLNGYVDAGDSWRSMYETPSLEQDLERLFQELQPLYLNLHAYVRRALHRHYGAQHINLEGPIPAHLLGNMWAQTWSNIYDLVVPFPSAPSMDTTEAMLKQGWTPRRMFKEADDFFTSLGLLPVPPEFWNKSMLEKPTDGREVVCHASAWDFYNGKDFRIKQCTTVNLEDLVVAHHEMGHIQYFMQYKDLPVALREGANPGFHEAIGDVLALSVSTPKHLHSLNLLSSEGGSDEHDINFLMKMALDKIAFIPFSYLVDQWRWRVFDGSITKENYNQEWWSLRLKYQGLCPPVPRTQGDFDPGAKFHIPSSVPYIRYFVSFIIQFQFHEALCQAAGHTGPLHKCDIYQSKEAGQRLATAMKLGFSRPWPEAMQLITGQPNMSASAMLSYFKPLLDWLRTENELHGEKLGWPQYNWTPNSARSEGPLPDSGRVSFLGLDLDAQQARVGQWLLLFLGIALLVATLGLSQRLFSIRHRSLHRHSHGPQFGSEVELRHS

Row | greater affinity for the AT1 receptor than for the AT2 receptor (AT1 receptor) | inhibition of ACE (kininase II) (ACE (kininase II)) | solubility in water | Compound | binding to or blocking of other hormone receptors or ion channels [1]
1 | > 10,000 fold | does not inhibit | – | CCOc1nc2cccc(C(=O)O)c2n1Cc1ccc(-c2ccccc2-c2nnn[nH]2)cc1 [Candesartan] | does not bind to or block
2 | – | – | practically insoluble | CCOc1nc2cccc(C(=O)OC(C)OC(=O)OC3CCCCC3)c2n1Cc1ccc(-c2ccccc2-c2nnn[nH]2)cc1 (racemic) [Candesartan cilexitil, (“)-1-Hydroxyethyl 2-ethoxy-1-[p-(o-1H-tetrazol-5-ylphenyl)benzyl]-7-benzimidazolecarboxylate, cyclohexyl carbonate(ester)] | –
